Experimental data reported in patent US20180162862A1 (President and Fellows of Harvard College, priority 2015, published 2018).
Converted amounts (≈) assume the structure as drawn.

Columns and labels:
Format in all cases: cell-based
S. aureus ATCC 29213 = experiment: MIC test according to CLSI M7-A9, S. aureus ATCC 29213; settings: Staphylococcus aureus, ATCC29213; CLSI M7-A9, CAMHB, 24 h (Table 3); read-out: S. aureus ATCC 29213 MIC
Description: (§1) MIC Test (S. aureus ATCC 29213, S. aureus ATCC 43300 and S. aureus Newman)
(§2) Susceptibility testing of S. aureus ATCC 29213, ATCC 43300 and Newman was performed according to Clinical Laboratory Standard Institute (CLSI) guidelines M7-A9. Test articles were stored at room temperature prior to use, then dissolved in filtered sterile DMSO. Stock DMSO solutions were diluted further in cation-adjusted Mueller Hinton broth (CAMHB) to provide appropriate test concentrations. Cultures of S. aureus (ATCC 29213, ATCC 43300 or Newman) were added in accordance with CLSI guidelines and plates incubated at 37° C. in air for 24 h. Endpoints were determined visually (and by spectrophotometer at 600 nm) and the minimum inhibitory concentration (MIC) defined as the lowest concentration of test articles resulting in complete inhibition of visible bacterial growth. Results are detailed in Table 2 (S. aureus ATCC 29213 and ATCC 43300) and Table 3 (S. aureus ATCC 29213, ATCC 43300 and Newman).

S. aureus ATCC 43300 = experiment: MIC test according to CLSI M7-A9, S. aureus ATCC 43300; settings: Staphylococcus aureus, ATCC43300; CLSI M7-A9, CAMHB, 24 h (Table 3); read-out: S. aureus ATCC 43300 MIC
Description: as §1, §2

S. aureus Newman = experiment: MIC test according to CLSI M7-A9, S. aureus Newman; settings: Staphylococcus aureus, CLSI M7-A9, CAMHB, 24 h (Table 3), read-out: S. aureus ATCC Newman MIC
Description: as §1, §2

Row | SMILES | MIC (S. aureus ATCC 29213) | MIC (S. aureus ATCC 43300) | MIC (S. aureus Newman)
1 | CCCCCCCCCCCCCCCCNc1nc(-c2ccc(C(C)(C)C)cc2)nc2cc(=O)[nH]n12 [Example 73, 2-(4-tert-butylphenyl)-4-(hexadecylamino)-6H,7H-pyrazolo[1,5-a][1,3,5]triazin-7-one] | > 32 µg/mL | > 32 µg/mL | > 32 µg/mL
2 | CN(C)CCCNc1nc(-c2ccc(C(C)(C)C)cc2)nc2cc(=O)[nH]n12 [Example 75, 2-(4-tert-butylphenyl)-4-{[3-(dimethylamino)propyl]amino}-6H,7H-pyrazolo[1,5-a][1,3,5]triazin-7-one] | 32 µg/mL (≈ 86.8 µM) | 32 µg/mL (≈ 86.8 µM) | 32 µg/mL (≈ 86.8 µM)
3 | CC(C)(O)CCNc1nc(-c2ccc(C(C)(C)C)cc2)nc2cc(=O)[nH]n12 [Example 80, 2-(4-tert-butylphenyl)-4-[(3-hydroxy-3-methylbutyl)amino]-6H,7H-pyrazolo[1,5-a][1,3,5]triazin-7-one] | 32 µg/mL (≈ 86.6 µM) | 64 µg/mL (≈ 173 µM) | 32 µg/mL (≈ 86.6 µM)
4 | CC(C)(C)c1ccc(-c2nc(NCCN3CCCCC3)n3[nH]c(=O)cc3n2)cc1 [Example 82, 2-(4-tert-butylphenyl)-4-{[2-(piperidin-1-yl)ethyl]amino}-6H,7H-pyrazolo[1,5-a][1,3,5]triazin-7-one] | 64 µg/mL (≈ 162 µM) | 64 µg/mL (≈ 162 µM) | 32 µg/mL (≈ 81.1 µM)
5 | CC(C)(C)c1ccc(-c2nc(NCC(F)CNC3CCCCC3)n3[nH]c(=O)cc3n2)cc1 (centres unmarked) [Example 87, 2-(4-tert-butylphenyl)-4-{[3-(cyclohexylamino)-2-fluoropropyl]amino}-6H,7H-pyrazolo[1,5-a][1,3,5]triazin-7-one] | 32 µg/mL (≈ 72.6 µM) | 32 µg/mL (≈ 72.6 µM) | 32 µg/mL (≈ 72.6 µM)
6 | O=c1cc2nc(C34CC5CC(CC(C5)C3)C4)[nH]c(=S)n2[nH]1 [Example 99, 2-(adamantan-1-yl)-4-sulfanylidene-3H,4H,6H,7H-pyrazolo[1,5-a][1,3,5]triazin-7-one] | 64 µg/mL (≈ 212 µM) | 64 µg/mL (≈ 212 µM) | 32 µg/mL (≈ 106 µM)
7 | O=c1cc2nc(C34CC5CC(CC(C5)C3)C4)nc(NCCCNC3Cc4ccccc4C3)n2[nH]1 [Example 101, 2-(adamantan-1-yl)-4-({3-[(2,3-dihydro-1H-inden-2-yl)amino]propyl}amino)-6H,7H-pyrazolo[1,5-a][1,3,5]triazin-7-one] | 8 µg/mL (≈ 17.4 µM) | 8 µg/mL (≈ 17.4 µM) | 8 µg/mL (≈ 17.4 µM)
8 | CC(=O)c1ccc(-c2nc(NCCCNC3Cc4ccccc4C3)n3[nH]c(=O)cc3n2)cc1 [Example 103, 2-(4-acetylphenyl)-4-({3-[(2,3-dihydro-1H-inden-2-yl)amino]propyl}amino)-6H,7H-pyrazolo[1,5-a][1,3,5]triazin-7-one] | 16 µg/mL (≈ 36.2 µM) | 8 µg/mL (≈ 18.1 µM) | 32 µg/mL (≈ 72.3 µM)
9 | Cc1ccc(Cc2c(=O)[nH]n3c(NCCCN4CCc5ccccc5C4)nc(-c4ccc(C(C)(C)C)cc4)nc23)cn1 [Example 115, 2-(4-tert-butylphenyl)-8-[(6-methylpyridin-3-yl)methyl]-4-[3-(1,2,3,4-tetrahydroisoquinolin-2-yl)propyl]amino-6H,7H-pyrazolo[1,5-a][1,3,5]triazin-7-one] | 32 µg/mL (≈ 57 µM) | – | 8 µg/mL (≈ 14.2 µM)
10 | Cc1ccc(Cc2c(=O)[nH]n3c(N4CCN(C)CC4)nc(-c4ccc(C(C)(C)C)cc4)nc23)cn1 [Example 117, 2-(4-tert-butylphenyl)-4-(4-methylpiperazin-1-yl)-8-[(6-methylpyridin-3-yl)methyl]-6H,7H-pyrazolo[1,5-a][1,3,5]triazin-7-one] | 128 µg/mL (≈ 271 µM) | – | 128 µg/mL (≈ 271 µM)
11 | CC(C)(C)c1ccc(-c2nc3c(CC45CC6CC(CC(C6)C4)C5)c(=O)[nH]n3c(=S)[nH]2)cc1 [Example 118, 8-(adamantan-1-ylmethyl)-2-(4-tert-butylphenyl)-4-sulfanylidene-3H,4H,6H,7H-pyrazolo[1,5-a][1,3,5]triazin-7-one] | 8 µg/mL (≈ 17.8 µM) | – | 0.5 µg/mL (≈ 1.11 µM)
12 | CC(C)(C)c1ccc(-c2nc(NCCCO)n3[nH]c(=O)c(CC45CC6CC(CC(C6)C4)C5)c3n2)cc1 [Example 119, 8-(adamantan-1-ylmethyl)-2-(4-tert-butylphenyl)-4-[(3-hydroxypropyl)amino]-6H,7H-pyrazolo[1,5-a][1,3,5]triazin-7-one] | 16 µg/mL (≈ 32.7 µM) | – | 16 µg/mL (≈ 32.7 µM)
13 | CN(C)CCCNc1nc(-c2ccc(C(C)(C)C)cc2)nc2c(CC34CC5CC(CC(C5)C3)C4)c(=O)[nH]n12 [Example 120, 8-(adamantan-1-ylmethyl)-2-(4-tert-butylphenyl)-4-{[3-(dimethylamino)propyl]amino}-6H,7H-pyrazolo[1,5-a][1,3,5]triazin-7-one] | 1 µg/mL (≈ 1.94 µM) | – | 1 µg/mL (≈ 1.94 µM)
14 | CN(C)CCCNc1nc(C23CC4CC(CC(C4)C2)C3)nc2c(Cc3ccccc3)c(=O)[nH]n12 [Example 123, 2-(adamantan-1-yl)-8-benzyl-4-{[3-(dimethylamino)propyl]amino}-6H,7H-pyrazolo[1,5-a][1,3,5]triazin-7-one] | 4 µg/mL (≈ 8.68 µM) | – | 4 µg/mL (≈ 8.68 µM)

The remaining compounds from weak to strong by MIC (S. aureus ATCC 29213), led by results:

Row | MIC (S. aureus ATCC 29213) | MIC (S. aureus ATCC 43300) | MIC (S. aureus Newman) | SMILES
15 | 128 µg/mL (≈ 323 µM) | 128 µg/mL (≈ 323 µM) | 128 µg/mL (≈ 323 µM) | CC(C)(C)c1ccc(-c2nc(NCCN3CCOCC3)n3[nH]c(=O)cc3n2)cc1 [Example 81, 2-(4-tert-butylphenyl)-4-{[2-(morpholin-4-yl)ethyl]amino}-6H,7H-pyrazolo[1,5-a][1,3,5]triazin-7-one]
16 | 128 µg/mL (≈ 233 µM) | – | 2 µg/mL (≈ 3.64 µM) | O=c1[nH]n2c(NCCCN3CCc4ccccc4C3)nc(C34CC5CC(CC(C5)C3)C4)nc2c1Cc1ccccc1 [Example 124, 2-(adamantan-1-yl)-8-benzyl-4-{[3-(1,2,3,4-tetrahydroisoquinolin-2-yl)propyl]amino}-6H,7H-pyrazolo[1,5-a][1,3,5]triazin-7-one]
17 | 32 µg/mL (≈ 75.7 µM) | 32 µg/mL (≈ 75.7 µM) | 32 µg/mL (≈ 75.7 µM) | CN(CCNc1nc(-c2ccc(C(C)(C)C)cc2)nc2cc(=O)[nH]n12)C1CCCCC1 [Example 83, 2-(4-tert-butylphenyl)-4-({2-[cyclohexyl(methyl)amino]ethyl}amino)-6H,7H-pyrazolo[1,5-a][1,3,5]triazin-7-one]
18 | 32 µg/mL (≈ 62.7 µM) | 32 µg/mL (≈ 62.7 µM) | 4 µg/mL (≈ 7.84 µM) | Cc1cc(OCCCN(CCO)c2nc(-c3ccc(C(C)(C)C)cc3)nc3cc(=O)[nH]n23)ccc1Cl [Example 85]
19 | 32 µg/mL (≈ 105 µM) | 16 µg/mL (≈ 52.6 µM) | 8 µg/mL (≈ 26.3 µM) | Cc1oc(C(C)(C)C)cc1-c1nc2cc(=O)[nH]n2c(=S)[nH]1 [Example 92, 2-(5-tert-butyl-2-methylfuran-3-yl)-4-sulfanylidene-3H,4H,6H,7H-pyrazolo[1,5-a][1,3,5]triazin-7-one]
20 | 32 µg/mL (≈ 92.6 µM) | 32 µg/mL (≈ 92.6 µM) | 16 µg/mL (≈ 46.3 µM) | Cc1oc(C(C)(C)C)cc1-c1nc(NCCCO)n2[nH]c(=O)cc2n1 [Example 93, 2-(5-tert-butyl-2-methylfuran-3-yl)-4-[(3-hydroxypropyl)amino]-6H,7H-pyrazolo[1,5-a][1,3,5]triazin-7-one]
21 | 32 µg/mL (≈ 93.2 µM) | 32 µg/mL (≈ 93.2 µM) | 16 µg/mL (≈ 46.6 µM) | O=c1cc2nc(C34CC5CC(CC(C5)C3)C4)nc(NCCCO)n2[nH]1 [Example 100, 2-(adamantan-1-yl)-4-[(3-hydroxypropyl)amino]-6H,7H-pyrazolo[1,5-a][1,3,5]triazin-7-one]
22 | 32 µg/mL (≈ 70.8 µM) | 32 µg/mL (≈ 70.8 µM) | 32 µg/mL (≈ 70.8 µM) | CC(=O)c1ccc(-c2nc(NCCCOc3ccc(Cl)c(C)c3)n3[nH]c(=O)cc3n2)cc1 [Example 104, 2-(4-acetylphenyl)-4-{[3-(4-chloro-3-methylphenoxy)propyl]amino}-6H,7H-pyrazolo[1,5-a][1,3,5]triazin-7-one]
23 | 16 µg/mL (≈ 37.2 µM) | 16 µg/mL (≈ 37.2 µM) | 16 µg/mL (≈ 37.2 µM) | CC(C)(C)c1ccc(-c2nc(NCCCNCc3ccccc3)n3[nH]c(=O)cc3n2)cc1 [Example 74, 4-{[3-(benzylamino)propyl]amino}-2-(4-tert-butylphenyl)-6H,7H-pyrazolo[1,5-a][1,3,5]triazin-7-one]
24 | 16 µg/mL (≈ 34.7 µM) | 16 µg/mL (≈ 34.7 µM) | 16 µg/mL (≈ 34.7 µM) | Cc1oc(C(C)(C)C)cc1-c1nc(NCCCNC2Cc3ccccc3C2)n2[nH]c(=O)cc2n1 [Example 94]
25 | 8 µg/mL (≈ 18.5 µM) | – | 8 µg/mL (≈ 18.5 µM) | O=c1[nH]n2c(NCCCO)nc(C34CC5CC(CC(C5)C3)C4)nc2c1Cc1ccccc1 [Example 122, 2-(adamantan-1-yl)-8-benzyl-4-[(3-hydroxypropyl)amino]-6H,7H-pyrazolo[1,5-a][1,3,5]triazin-7-one]
26 | 4 µg/mL (≈ 7.12 µM) | – | 4 µg/mL (≈ 7.12 µM) | Cc1ccc(Cc2c(=O)[nH]n3c(NCCCNC4Cc5ccccc5C4)nc(-c4ccc(C(C)(C)C)cc4)nc23)cn1 [Example 116, 2-(4-tert-butylphenyl)-4-({3-[(2,3-dihydro-1H-inden-2-yl)amino]propyl}amino)-8-[(6-methylpyridin-3-yl)methyl]-6H,7H-pyrazolo[1,5-a][1,3,5]triazin-7-one]
27 | 2 µg/mL (≈ 3.64 µM) | – | 1 µg/mL (≈ 1.82 µM) | O=c1[nH]n2c(NCCCNC3Cc4ccccc4C3)nc(C34CC5CC(CC(C5)C3)C4)nc2c1Cc1ccccc1 [Example 125, 2-(adamantan-1-yl)-8-benzyl-4-({3-[(2,3-dihydro-1H-inden-2-yl)amino]propyl}amino)-6H,7H-pyrazolo[1,5-a][1,3,5]triazin-7-one]
